The text below walks through data of patent US20020052325A1, “Anticonvulsant derivatives useful in maintaining weight loss” (priority 1999, published 2002).

Each structure is given as a SMILES string. Like-named read-outs stand apart in the source and are kept apart here.

A short description of assay [1]: Weight loss in patients treated with topiramate as adjunctive therapy in epilepsy. Type of assay: in vivo, human. Here is the method:
Further, carboxylic acids and aldehydes of the formulae RCOOH and RCHO may be reduced to compounds of the formula RCH2OH by standard reduction techniques, e.g. reaction with lithium aluminum hydride, sodium borohydride or borane-THF complex in an inert solvent such a diglyme, THF or toluene at a temperature of about 0° to 100° C., e.g. as described by H. O. House in “Modern Synthetic Reactions”, 2nd Ed., pages 45 to 144 (1972). In patients treated with topiramate as an adjunctive therapy in epilepsy (n=1319), mean weight loss of 4.6% of baseline weight was observed. The mean daily dosage of topiramate was 621.9 mg/day and the mean duration of dosing was 688.8 days. […] On topiramate treatment, there is gradual weight loss over time, with maintenance of the weight lost to 24 months of therapy; thus the mean percentage decrease in weight for all subjects (n=1319) was 4.6%, with similar weight loss maintained at one year (4.9%) and two years (4.5%) of treatment. This pattern is also seen in those patients with weight in excess of 100 kg at baseline (n=127), who lost a mean of 8.4% weight overall, with loss of 9.4% at one year and 9.9% at two years.

The subject of assay [2] is seizures. The conditions noted are these: several rodent models of epilepsy; cited from earlier work.
For assay [3], the system named is simple and complex partial seizures and secondarily generalized seizures. Conditions: adjunctive therapy or monotherapy, human epilepsy; cited from earlier work.
Assay [4] has as its system seizures. Conditions: animal model of kindled epilepsy; cited from earlier work.
The conditions of assay [5]: overweight individuals; cited from earlier work.

On to `CC1(C)O[C@@H]2[C@@H](CO[C@@]3(COS(N)(=O)=O)OC(C)(C)O[C@@H]23)O1` [topiramate, 2,3:4,5-bis-O-(1-methylethylidene)-β-D-fructopyranose sulfamate], for which the “mean percentage decrease in weight” value worked out at 4.9% in assay [1] (all subjects (n=1319), at one year of treatment) and 4.5% in assay [1] (all subjects (n=1319), at two years of treatment). Moreover, in assay [1] (all subjects (n=1319), overall, mean daily dosage 621.9 mg/day, mean duration of dosing 688.8 days), the “mean weight loss of baseline weight” value is recorded as 4.6%. The “mean decrease in weight” value in assay [1] (subjects >100 kg at baseline (n=127), at one year) was determined as 9.4%; in assay [1] (subjects >100 kg at baseline (n=127), at two years), 9.9%; in assay [1] (subset of subjects weighing >100 kg at baseline (n=127), overall, mean daily dose 873.5 mg/day, mean duration of dosing 881.8 days) it was 8.4%. Further, the seizure block entry with seizures [2] and in the assay with seizures [4] was “effectively block seizures” each time. In addition, the “efficacy in treating seizures” value in assay [3] is given as “effective as adjunctive therapy or as monotherapy”. For the same compound, the weight reduction result in assay [5] is recorded as “effectively reduce the weight”.
